The text below walks through data of patent US9708272B2, “Inhibitors of α-amino-β-carboxymuconic acid semialdehyde decarboxylase” (TES Pharma S.r.l., priority 2014, dated 2017).

In one series the target is ACMSD-1 (Homo sapiens (Human), UniProt Q8TDX5). Briefly: ACMSD-1 modulation in HEK293T cells transiently expressing ACMSD. The class given is cell-based. The following applies: about 50 nM to about 5 uM, 48 hrs to 72 hrs.
Series [1] concerns SOD2. Nature of the series: Modulation of SOD2 activity in AML-12 cells. Format: cell-based, mouse. The following applies: 24 hours. How it is done: Primary hepatocytes or AML-12 cells are lysed and total protein concentration is determined using the Bradford assay. SOD2 activity is determined at indicated times after treatment with a compound of Formula (I), Formula (Ia), Formula (Ib), Formula (II), or Formula (III), or a pharmaceutically acceptable salt thereof, using a SOD Assay Kit. Absorbance is determined and results are expressed in U/ml/mg of protein according to the standard curve and measured protein concentration. […]
Primary hepatocytes or AML-12 cells were then lysed in a 20 mM HEPES buffer (Gibco), pH 7.2, containing 1 mM EGTA (Sigma), 210 mM mannitol (Sigma), and 70 mM sucrose (AMRESCO). Total protein concentration was determined using the Bradford assay (BioRad). SOD-2 activity was determined at indicated times after ACMSD inhibitor treatment by the SOD Assay Kit (Cayman Chemical) according to the manufacturer's instructions. […] Absorbance was determined with a Victor X4 multi-label plate reader (Perkin-Elmer) at 450 nm. Results are expressed in U/ml/mg of protein according to the standard curve and measured protein concentration.

Series [2] has as its system SOD2. Nature of the series: Modulation of SOD2 activity in murine primary hepatocytes. The note with it: primary murine hepatocytes; 24 hours. The class given is cell-based, mouse. How it is done: Primary hepatocytes or AML-12 cells are lysed and total protein concentration is determined using the Bradford assay. SOD2 activity is determined at indicated times after treatment with a compound of Formula (I), Formula (Ia), Formula (Ib), Formula (II), or Formula (III), or a pharmaceutically acceptable salt thereof, using a SOD Assay Kit. Absorbance is determined and results are expressed in U/ml/mg of protein according to the standard curve and measured protein concentration.
Primary hepatocytes were prepared from 8-12-week-old C57BL/6J mice by collagenase perfusion method. Mouse livers were perfused with Hank's balanced salt solution (HBSS, KCl, 5.4 mM; KH2PO4, 0.45 mM; NaCl, 138 mM; NaHCO3, 4.2 mM; Na2HPO4, 0.34 mM; glucose, 5.5 mM; […]; EGTA, 50 mM; CaCl2, 50 mM; pH 7.4). Livers were then washed at a rate of 5 ml/min through the portal vein. After washing, livers were perfused with collagenase (0.025%) solution. Cell viability was assessed by the trypan blue method. Isolated primary hepatocytes were plated with DMEM medium (Gibco) including 10% FCS, 10 units per ml penicillin and HEPES for buffering. The cells were maintained in culture at 37° C. in a humidified atmosphere of 5% CO2/95% air. After 6-8 hrs of attachment, this medium was replaced with media containing different concentrations of an ACMSD inhibitor (i.e., Compound 1 or Compound 17) or with the corresponding concentration of DMSO (as a control). Primary hepatocytes were harvested about 24 hrs later if not indicated differently.
Primary hepatocytes or AML-12 cells were then lysed in a 20 mM HEPES buffer (Gibco), pH 7.2, containing 1 mM EGTA (Sigma), 210 mM mannitol (Sigma), and 70 mM sucrose (AMRESCO). Total protein concentration was determined using the Bradford assay (BioRad). SOD-2 activity was determined at indicated times after ACMSD inhibitor treatment by the SOD Assay Kit (Cayman Chemical) according to the manufacturer's instructions. In order to specifically detect the SOD2 activity 2 mM potassium cyanide was added to the assay, which inhibited both Cu/Zn-SOD and extracellular SOD, resulting in the detection of only Mn-SOD (SOD-2) activity. Absorbance was determined with a Victor X4 multi-label plate reader (Perkin-Elmer) at 450 nm. Results are expressed in U/ml/mg of protein according to the standard curve and measured protein concentration.

Series [3] concerns SIRT1-regulated genes (Sod2). Nature of the series: RT-qPCR analysis of SIRT1-regulated genes in AML-12 cells. Format: cell-based, mouse. The following applies: 24 hrs. How it is done:
(§1) Cells (AML-12, Hepa-1.6, HEK-293, primary human and murine hepatocytes) are treated with different concentrations of a compound of Formula (I), Formula (Ia), Formula (Ib), Formula (II), or Formula (III), or a pharmaceutically acceptable salt thereof and the gene expression of ACMSD, Pgc1a, Sod1, and Sod2 (MnSOD) is determined using RT-qPCR. Total RNA is extracted from cells and the extracted RNA is treated with DNase and used for reverse transcription (RT).
(§2) Gene expression of ACMSD and genes known to be regulated by SIRT1, (an enzyme that is strictly NAD^+ dependent) such as Pgc1a, Sod1, Sod2 (MnSOD), were analysed in AML-12 cells, Hepa-1.6 cells and primary murine hepatocytes treated with Compound 1 or 17.
(§3) Cells (AML-12, Hepa-1.6, HEK-293, primary human and murine hepatocytes) were treated with different concentrations of Compound 1 or Compound 17. Total RNA was extracted from cells using TRIzol (Invitrogen) according to the manufacturer's instructions. The RNA was treated with DNase, and 2 μg of RNA was used for reverse transcription (RT). 50× diluted cDNA was used for RT-quantitative PCR (RT-qPCR) reactions. The RT-qPCR reactions were performed using the Light-Cycler system (Roche Applied Science) and a qPCR Supermix (QIAGEN) with the indicated primers. The average of at least three technical repeats was used for each biological data point.
For orientation: Real-time PCR tracks product formation cycle by cycle.

Series [4] concerns SIRT1-regulated genes (Sod2). Nature of the series: RT-qPCR analysis of SIRT1-regulated genes in Hepa-1.6 cells. The class given is cell-based. The following applies: Hepa-1.6 hepatic cell line; 24 hrs. How it is done: as §1, §2, §3
In the next series the test system is AML-12 cells. Nature of the series: Cytotoxicity (LDH release, ATP level) in AML-12 cells. The note with it: 10 nM to 300 μM; 4 hrs; DMSO 1%. Format: cell-based, mouse. The procedure: (§4) HePG2 and AML-12 cells are seeded and a dose-response of the compound is performed at various concentrations. Cells are stimulated and the supernatant is used to perform LDH release as a measure of necrosis while the cells are lysed to detect ATP levels for determining cell viability.
(§5) Cytotoxicity: 20000 HePG2 and AML-12 cells were seeded in 96 well plate (Viewplate PerkinElmer). Dose-response of the compound in Table 2 was performed using HP D300 digital dispenser, ranging from 10 nM to 300 μM with constant DMSO 1% in medium. Cells were stimulated for 4 hrs at 37° C.; the supernatant was used to perform LDH release (Cytotox-one, Promega) as a measure of necrosis while the cells were lysed to detect ATP level for determining cell viability (Celltiter-glo, Promega) according to manufacturer's instructions.
(LDH in the medium is a marker of cell lysis.)

The subject of another series is HePG2 cells. Nature of the series: Cytotoxicity (LDH release, ATP level) in HePG2 cells. The note with it: 10 nM to 300 μM; 4 hrs; DMSO 1%. The class given is cell-based. The procedure: as §4, §5
The target of the next series is hERG potassium channel (Homo sapiens (Human), UniProt Q12809). Nature of the series: Predictor hERG assay, fluorescence polarization tracer displacement. The note with it: hERG channel affinity binding; DMSO 1%. From the text:
The Predictor hERG assay kit is stably transfected with hERG potassium channel and a high-affinity red fluorescent hERG channel ligand and is used for the determination of hERG channel affinity binding of compounds of Formula (I), Formula (Ia), Formula (Ib), Formula (II), or Formula (III), or a pharmaceutically acceptable salt thereof. Compounds that bind to the hERG channel protein (competitors) are identified by their ability to displace the tracer which results in a lower fluorescence polarization.
The Predictor hERG assay kit (Invitrogen), containing membrane preparations from Chinese hamster ovary cells stably transfected with hERG potassium channel and a high-affinity red fluorescent hERG channel ligand (tracer), was used for the determination of hERG channel affinity binding of the test compounds in Table 2. Compounds that bind to the hERG channel protein (competitors) were identified by their ability to displace the tracer, resulting in a lower fluorescence polarization. The final concentration of DMSO in each well was maintained at 1%. The assays were performed according to the manufacturer's protocol (Invitrogen).

The next series relates to FoxO1. Briefly: FoxO1 phosphorylation levels in AML-12 cells (western blot). Format: cell-based, mouse. The note with it: 24 hours, FIG. 6. How it is done:
AML-12 cells are treated with different concentrations of a compound of Formula (I), Formula (Ia), Formula (Ib), Formula (II), or Formula (III), or a pharmaceutically acceptable salt thereof. Cells are then lysed, and analyzed by SDS-PAGE/western blot. Blocking and antibody incubations are then done and each protein present is detected with its specific antibody.
AML-12 cells were treated with different concentrations of Compound 1 or Compound 17 for 24 hours. Cells were then lysed in lysis buffer (50 mM Tris, 150 mM KCl, EDTA 1 mM, NP40 1%) containing protease and phosphatase inhibitors, and analyzed by SDS-PAGE/western blot. Blocking and antibody incubations were done in 5% milk. Each protein present was detected with its specific antibody. Tubulin antibody was obtained from Sigma Inc, FoxO1 and phopho-FoxO1 (Ser256) antibodies were obtained from Cell Signaling. Antibody detection reactions were developed by enhanced chemiluminescence (Advansta, Calif., USA) using x-ray films.

In a further series the target is hACMSD (ACMSD1) (Homo sapiens (Human), UniProt Q8TDX5). Nature of the series: Determination of ACMSD1 inhibition, spectrophotometrical in vitro assay. Format: biochemical. The following applies: 500 μM. The procedure:
The activity of compounds as inhibitors of ACMSD1 is determined in a spectrophotometrical in vitro assay. The pre-assay mixture is incubated and a compound of Formula (I), Formula (Ia), Formula (Ib), Formula (II), or Formula (III), or a pharmaceutically acceptable salt thereof, and ACMSD1 solution is then added. The effect of ACMS concentration on the enzyme activity is investigated by varying 3-hydroxyanthranilic acid (3OH-HA) concentration in the pre-assay mixture. Kinetic parameters are calculated from the initial velocity data using a Lineweaver-Burk plot.
The activity of compounds 1-19 and 21-23 as inhibitors of ACMSD1 was determined by measuring the conversion of 30H-Anthranilic Acid into product (i.e., ACMS) in a spectrophotometrical in vitro assay.
The pre-assay mixture consisting of 3-hydroxyanthranilic acid (3OH-HA), 3-hydroxyanthranilic acid, 3,4-diOxygenase (HAO), and a dialyzed crude extract of E. coli BL21 (DE3) cells expressing the recombinant enzyme, was incubated at 25° C. with monitoring of the increase in absorbance at 360 nm due to the formation of ACMS from 3OH-HA. After the reaction was completed within ˜2 mins, an aliquot of ACMSD1 solution (prepared and purified from Pichia Pastoris overexpressing the recombinant enzyme) was added, and the decrease in absorbance at 360 nm was followed at 15 second intervals. […]

Sequence of hERG potassium channel (Q12809 whole entry): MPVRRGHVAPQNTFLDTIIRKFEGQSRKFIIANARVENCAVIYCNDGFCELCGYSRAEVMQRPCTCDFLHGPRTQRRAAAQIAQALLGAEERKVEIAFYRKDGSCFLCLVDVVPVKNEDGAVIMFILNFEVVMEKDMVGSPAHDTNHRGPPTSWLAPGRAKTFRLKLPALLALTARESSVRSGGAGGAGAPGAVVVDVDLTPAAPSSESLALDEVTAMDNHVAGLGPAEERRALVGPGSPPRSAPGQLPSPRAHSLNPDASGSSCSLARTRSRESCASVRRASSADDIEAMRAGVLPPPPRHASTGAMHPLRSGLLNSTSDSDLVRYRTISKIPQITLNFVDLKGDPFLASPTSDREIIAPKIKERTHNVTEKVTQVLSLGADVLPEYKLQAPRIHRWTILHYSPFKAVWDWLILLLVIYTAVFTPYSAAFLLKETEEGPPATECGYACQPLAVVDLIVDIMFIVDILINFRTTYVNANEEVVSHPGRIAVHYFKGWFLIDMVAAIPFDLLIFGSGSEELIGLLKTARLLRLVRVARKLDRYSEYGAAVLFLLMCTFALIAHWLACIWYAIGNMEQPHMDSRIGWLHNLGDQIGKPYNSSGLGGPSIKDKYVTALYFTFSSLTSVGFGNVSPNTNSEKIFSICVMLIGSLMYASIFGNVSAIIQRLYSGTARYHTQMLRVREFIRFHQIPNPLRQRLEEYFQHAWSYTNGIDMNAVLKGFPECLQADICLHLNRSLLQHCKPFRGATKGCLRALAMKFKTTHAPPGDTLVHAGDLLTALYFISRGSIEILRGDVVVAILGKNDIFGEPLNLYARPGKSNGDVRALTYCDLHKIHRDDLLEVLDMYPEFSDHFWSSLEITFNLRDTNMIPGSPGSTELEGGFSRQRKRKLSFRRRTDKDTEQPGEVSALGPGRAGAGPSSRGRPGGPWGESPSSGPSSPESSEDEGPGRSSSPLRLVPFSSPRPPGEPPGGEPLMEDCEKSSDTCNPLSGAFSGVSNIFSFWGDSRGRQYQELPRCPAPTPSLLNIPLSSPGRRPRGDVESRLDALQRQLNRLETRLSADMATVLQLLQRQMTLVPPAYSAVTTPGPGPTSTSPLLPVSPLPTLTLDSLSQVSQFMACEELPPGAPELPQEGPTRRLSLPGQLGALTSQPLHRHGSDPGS
Sequence of ACMSD-1 (Q8TDX5 whole entry): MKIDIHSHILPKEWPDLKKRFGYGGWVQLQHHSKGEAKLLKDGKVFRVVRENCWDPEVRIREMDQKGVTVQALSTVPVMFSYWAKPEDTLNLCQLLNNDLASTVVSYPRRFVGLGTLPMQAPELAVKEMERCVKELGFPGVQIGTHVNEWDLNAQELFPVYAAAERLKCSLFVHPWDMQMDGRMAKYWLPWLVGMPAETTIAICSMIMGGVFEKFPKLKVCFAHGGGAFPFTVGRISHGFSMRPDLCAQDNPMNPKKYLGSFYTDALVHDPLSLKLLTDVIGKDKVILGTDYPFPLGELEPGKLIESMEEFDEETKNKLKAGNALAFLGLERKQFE
Sequence of hACMSD (ACMSD1) (Q8TDX5 whole entry): as above
Method for ACMSD-1: HEK293T cells are seeded and transfected to transiently express ACMSD. The cells are then stimulated with different concentrations of Compound 1, and then lysed to measure the ACMSD activity in a spectrophotometrical in vitro assay. The amount of the whole protein content in cell lysates is detected by Bradford analysis and used to get the specificity activity of the enzyme normalized in all samples.
HEK293T cells (ATCC) were seeded in six-well plates and transfected using Fugene HD to express transiently ACMSD. 24 hrs post transfection, the cells were stimulated for 48 hrs to 72 hrs with different concentrations of Compound 1 and then lysed to measure the ACMSD activity, by measuring the conversion of 30H-Anthranilic Acid into product (i.e. α-amino-beta-carboxymuconate-ε-semialdehyde, ACMS) in a spectrophotometrical in vitro assay. The amount of the whole protein content in cell lysates was detected by Bradford analysis. This value was used to get the specificity activity of the enzyme normalized in all samples (mU/ml or ΔE/Δt/mg of total protein).
Having determined the optimum stimulation time and transfection protocol cells were stimulated with different concentrations of Compound 1 (about 50 nM to about 5 uM).

Take `N#Cc1c(-c2ccccc2)nc(SCc2cccc(C(=O)O)c2)[nH]c1=O` [Compound 1]: the “ACMSD-1 activity in over-expression cell-based assay” value on ACMSD-1 is “inhibited ACMSD-1 activity, in a dose dependent manner”. Moreover, the SOD2 activity result with SOD2 [1] and with SOD2 [2] was “induced in a dose-dependent manner” in each case. Moreover, the “Sod2 mRNA levels” value in series [3] and in [4] was “increased in a dose-dependent manner” in each case. Moreover, the “Cytotoxicity AML-12” value with AML-12 cells is reported as “Not Toxic”. Besides, the “Cytotoxicity Hep-G2” value with HePG2 cells is listed as “Not Toxic”. For the same molecule, the hERG result on hERG potassium channel is “No Activity”. Further, the “FoxO1 phosphorylation at Ser256” value with FoxO1 is “decrease in FoxO1 phosphorylation at Ser256 with increasing dose”.

With `CCCCC(CC)COC(=O)c1ccccc1C(=O)O` (stereo not shown) [MEHP, mono-(2-ethylhexyl)phthalate], on hACMSD (ACMSD1), the “inhibition of purified ACMSD-1 enzyme” value was found to be 70%.
